In publication PMC4290623, “Homopharma: A new concept for exploring the molecular binding mechanisms and drug repurposing” (BMC Genomics, 2014):
pIC50: −log10 of the molar value. Blank lines part the entries; values can stand above or below the molecule they belong to.

Tests used:
Experiment in all cases: In vitro enzymatic profiling, HotSpot assay platform
Assay type in all cases: biochemical
FGFR1 = target: T1, FGFR1 (Homo sapiens, UniProt P11362); settings: inhibitor 10 μM, ATP 10 μM; for pIC50: duplicate, read-out: IC50 (bioactivity in the kinome picture)
T1 construct: purchased Reaction Biology Corporation
T1 sequence (P11362 22-822): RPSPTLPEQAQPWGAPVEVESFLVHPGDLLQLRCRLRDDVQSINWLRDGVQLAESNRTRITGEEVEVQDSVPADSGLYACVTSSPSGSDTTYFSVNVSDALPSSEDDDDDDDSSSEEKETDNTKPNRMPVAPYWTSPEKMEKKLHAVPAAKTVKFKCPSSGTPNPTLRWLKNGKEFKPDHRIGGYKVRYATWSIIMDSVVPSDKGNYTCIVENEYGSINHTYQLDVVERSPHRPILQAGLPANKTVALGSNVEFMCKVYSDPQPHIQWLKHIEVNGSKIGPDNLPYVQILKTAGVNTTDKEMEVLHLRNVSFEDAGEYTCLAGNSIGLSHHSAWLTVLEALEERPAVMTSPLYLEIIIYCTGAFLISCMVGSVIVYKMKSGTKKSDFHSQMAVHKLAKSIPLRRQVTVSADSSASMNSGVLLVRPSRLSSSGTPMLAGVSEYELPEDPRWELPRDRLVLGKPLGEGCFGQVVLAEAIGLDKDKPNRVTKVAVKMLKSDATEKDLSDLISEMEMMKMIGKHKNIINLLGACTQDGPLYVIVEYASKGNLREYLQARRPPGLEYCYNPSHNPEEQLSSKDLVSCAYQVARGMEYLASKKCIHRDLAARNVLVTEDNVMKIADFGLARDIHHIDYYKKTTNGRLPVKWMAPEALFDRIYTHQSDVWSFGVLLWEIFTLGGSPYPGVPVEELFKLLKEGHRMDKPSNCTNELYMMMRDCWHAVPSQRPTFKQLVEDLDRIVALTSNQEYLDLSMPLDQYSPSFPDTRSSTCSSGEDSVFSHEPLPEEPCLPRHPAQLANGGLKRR
Experimental: (§1) In vitro enzymatic profiling of the 32 member kinase panel was performed at Reaction Biology Corporation (http://www.reactionbiology.com, Malvern, PA) using the "HotSpot" assay platform. Each kinase activity assay was performed in duplicate with inhibitor concentration of 10 μM and an ATP concentration of 10 μM.

IGF1R = target: T2, IGF1R (Homo sapiens, UniProt P08069); settings: inhibitor 10 μM, ATP 10 μM; for pIC50: duplicate, read-out: IC50 (bioactivity in the kinome picture)
T2 construct: purchased Reaction Biology Corporation
T2 sequence (P08069 31-1367): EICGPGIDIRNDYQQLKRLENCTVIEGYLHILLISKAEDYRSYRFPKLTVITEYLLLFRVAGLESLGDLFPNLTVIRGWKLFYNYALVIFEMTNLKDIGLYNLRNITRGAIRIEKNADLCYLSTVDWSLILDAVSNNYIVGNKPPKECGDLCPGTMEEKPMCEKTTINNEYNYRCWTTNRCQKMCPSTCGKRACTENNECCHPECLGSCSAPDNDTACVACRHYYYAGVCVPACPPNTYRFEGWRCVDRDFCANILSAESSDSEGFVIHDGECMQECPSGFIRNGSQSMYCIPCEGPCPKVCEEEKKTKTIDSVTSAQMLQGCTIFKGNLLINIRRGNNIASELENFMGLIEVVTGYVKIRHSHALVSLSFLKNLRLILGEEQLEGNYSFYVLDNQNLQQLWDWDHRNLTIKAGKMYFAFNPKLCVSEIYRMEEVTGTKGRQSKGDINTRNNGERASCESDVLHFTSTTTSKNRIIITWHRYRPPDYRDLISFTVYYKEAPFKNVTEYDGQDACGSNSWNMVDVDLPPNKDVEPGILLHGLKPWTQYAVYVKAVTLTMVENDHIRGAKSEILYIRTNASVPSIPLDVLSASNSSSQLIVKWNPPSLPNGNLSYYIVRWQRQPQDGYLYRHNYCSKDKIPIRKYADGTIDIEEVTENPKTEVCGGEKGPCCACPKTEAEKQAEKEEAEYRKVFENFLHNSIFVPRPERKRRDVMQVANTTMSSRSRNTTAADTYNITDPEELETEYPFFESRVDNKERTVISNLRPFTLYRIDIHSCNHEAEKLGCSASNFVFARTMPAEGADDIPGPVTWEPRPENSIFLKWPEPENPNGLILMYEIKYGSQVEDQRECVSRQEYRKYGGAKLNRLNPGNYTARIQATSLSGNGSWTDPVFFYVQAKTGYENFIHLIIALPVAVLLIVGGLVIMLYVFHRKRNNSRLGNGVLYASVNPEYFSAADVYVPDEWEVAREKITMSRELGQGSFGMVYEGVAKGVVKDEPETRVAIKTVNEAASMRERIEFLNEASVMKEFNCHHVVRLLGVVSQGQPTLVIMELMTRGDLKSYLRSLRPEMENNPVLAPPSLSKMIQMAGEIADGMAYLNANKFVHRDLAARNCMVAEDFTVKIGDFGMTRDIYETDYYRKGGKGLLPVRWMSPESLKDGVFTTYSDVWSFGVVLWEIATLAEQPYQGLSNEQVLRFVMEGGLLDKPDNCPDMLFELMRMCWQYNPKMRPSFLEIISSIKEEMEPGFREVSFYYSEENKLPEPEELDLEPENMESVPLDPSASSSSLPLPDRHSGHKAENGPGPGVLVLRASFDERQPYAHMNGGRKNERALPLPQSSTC
Experimental: as §1

INSR = target: T3, INSR (Homo sapiens, UniProt P06213); settings: inhibitor 10 μM, ATP 10 μM, duplicate, read-out: IC50 (bioactivity in the kinome picture)
T3 construct: purchased Reaction Biology Corporation
T3 sequence (P06213 28-1382): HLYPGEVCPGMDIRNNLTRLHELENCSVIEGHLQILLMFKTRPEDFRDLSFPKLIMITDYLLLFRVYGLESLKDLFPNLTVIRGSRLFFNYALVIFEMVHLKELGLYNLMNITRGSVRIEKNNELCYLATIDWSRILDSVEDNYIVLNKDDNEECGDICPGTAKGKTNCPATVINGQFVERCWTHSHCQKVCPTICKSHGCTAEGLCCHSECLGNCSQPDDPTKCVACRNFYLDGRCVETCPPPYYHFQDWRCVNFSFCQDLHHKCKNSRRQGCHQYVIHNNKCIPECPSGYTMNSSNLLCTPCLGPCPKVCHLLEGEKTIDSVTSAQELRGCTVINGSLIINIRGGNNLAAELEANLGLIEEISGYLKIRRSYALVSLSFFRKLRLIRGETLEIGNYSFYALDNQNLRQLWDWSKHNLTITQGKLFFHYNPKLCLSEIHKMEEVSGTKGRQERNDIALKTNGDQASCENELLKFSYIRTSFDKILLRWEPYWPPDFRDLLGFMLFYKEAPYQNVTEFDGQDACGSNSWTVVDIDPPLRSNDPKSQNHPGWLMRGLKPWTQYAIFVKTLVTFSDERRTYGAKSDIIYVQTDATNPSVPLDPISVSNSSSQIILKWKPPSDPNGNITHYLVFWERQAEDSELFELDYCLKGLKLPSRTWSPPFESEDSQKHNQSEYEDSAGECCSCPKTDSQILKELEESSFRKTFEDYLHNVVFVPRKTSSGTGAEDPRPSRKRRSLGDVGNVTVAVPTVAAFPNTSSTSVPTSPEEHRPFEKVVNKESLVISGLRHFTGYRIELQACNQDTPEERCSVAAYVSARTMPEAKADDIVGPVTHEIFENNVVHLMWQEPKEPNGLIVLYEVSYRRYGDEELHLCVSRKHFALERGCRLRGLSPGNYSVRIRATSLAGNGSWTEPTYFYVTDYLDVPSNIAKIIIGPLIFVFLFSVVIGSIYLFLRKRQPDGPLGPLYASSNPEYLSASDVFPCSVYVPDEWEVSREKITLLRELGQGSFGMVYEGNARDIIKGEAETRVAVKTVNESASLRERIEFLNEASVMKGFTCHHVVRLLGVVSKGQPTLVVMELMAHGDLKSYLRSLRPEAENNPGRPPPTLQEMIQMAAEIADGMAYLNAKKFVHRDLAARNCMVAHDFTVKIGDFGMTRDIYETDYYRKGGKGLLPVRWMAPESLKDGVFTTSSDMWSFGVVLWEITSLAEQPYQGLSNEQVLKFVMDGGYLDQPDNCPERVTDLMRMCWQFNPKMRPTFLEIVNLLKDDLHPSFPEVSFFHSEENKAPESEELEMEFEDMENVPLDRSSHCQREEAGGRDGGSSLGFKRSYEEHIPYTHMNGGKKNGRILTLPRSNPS
Experimental: as §1

AKT2 = target: T4, AKT2 (Homo sapiens, UniProt P31751); settings: inhibitor 10 μM, ATP 10 μM
T4 construct: purchased Reaction Biology Corporation
Experimental: as §1

EGFR = target: T5, EGFR (Homo sapiens, UniProt P00533); settings: inhibitor 10 μM, ATP 10 μM
T5 construct: purchased Reaction Biology Corporation
Experimental: as §1

KIT = target: T6, KIT (Homo sapiens, UniProt P10721); settings: inhibitor 10 μM, ATP 10 μM
T6 construct: purchased Reaction Biology Corporation
Experimental: as §1

LCK = target: T7, LCK (Homo sapiens, UniProt P06239); settings: inhibitor 10 μM, ATP 10 μM
T7 construct: purchased Reaction Biology Corporation
T7 sequence (P06239 whole entry): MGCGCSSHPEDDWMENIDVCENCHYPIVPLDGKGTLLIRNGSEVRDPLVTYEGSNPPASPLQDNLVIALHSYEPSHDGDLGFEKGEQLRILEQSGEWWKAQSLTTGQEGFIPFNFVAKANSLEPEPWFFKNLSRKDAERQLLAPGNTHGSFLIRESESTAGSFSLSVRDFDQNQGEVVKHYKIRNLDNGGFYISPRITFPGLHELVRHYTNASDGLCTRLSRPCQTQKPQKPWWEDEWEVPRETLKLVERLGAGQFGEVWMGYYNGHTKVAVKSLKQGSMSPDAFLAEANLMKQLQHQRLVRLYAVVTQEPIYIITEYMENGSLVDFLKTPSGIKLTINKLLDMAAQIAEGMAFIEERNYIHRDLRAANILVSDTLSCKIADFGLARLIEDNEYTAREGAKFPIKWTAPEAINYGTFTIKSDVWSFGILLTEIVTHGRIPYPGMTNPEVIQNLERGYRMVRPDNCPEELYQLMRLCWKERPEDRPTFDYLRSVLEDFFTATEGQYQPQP
Experimental: as §1

MAPK3 = target: T8, MAPK3 (Homo sapiens, UniProt P27361); settings: inhibitor 10 μM, ATP 10 μM
T8 construct: purchased Reaction Biology Corporation
Experimental: as §1

SRC = target: T9, SRC (Homo sapiens, UniProt P12931); settings: inhibitor 10 μM, ATP 10 μM
T9 construct: purchased Reaction Biology Corporation
T9 sequence (P12931 whole entry): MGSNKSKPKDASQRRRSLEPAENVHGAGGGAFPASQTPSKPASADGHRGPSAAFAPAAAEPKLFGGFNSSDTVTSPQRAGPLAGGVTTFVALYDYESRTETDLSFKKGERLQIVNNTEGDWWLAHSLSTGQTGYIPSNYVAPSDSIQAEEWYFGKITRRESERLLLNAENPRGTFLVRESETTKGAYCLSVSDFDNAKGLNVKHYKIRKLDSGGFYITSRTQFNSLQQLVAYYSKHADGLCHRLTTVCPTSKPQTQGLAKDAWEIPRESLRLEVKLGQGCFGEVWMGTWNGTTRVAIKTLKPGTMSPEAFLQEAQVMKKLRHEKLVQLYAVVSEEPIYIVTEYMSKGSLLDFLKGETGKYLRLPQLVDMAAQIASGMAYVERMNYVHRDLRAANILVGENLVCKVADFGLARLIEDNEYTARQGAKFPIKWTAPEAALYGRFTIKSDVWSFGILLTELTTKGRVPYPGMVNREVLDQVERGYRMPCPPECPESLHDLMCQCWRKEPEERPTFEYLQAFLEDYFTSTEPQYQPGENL
Experimental: as §1

CSNK2A1 = target: T10, CSNK2A1 (Homo sapiens, UniProt P68400); settings: inhibitor 10 μM, ATP 10 μM, duplicate, read-out: IC50 (bioactivity in the kinome picture)
T10 construct: purchased Reaction Biology Corporation
T10 sequence (P68400 whole entry): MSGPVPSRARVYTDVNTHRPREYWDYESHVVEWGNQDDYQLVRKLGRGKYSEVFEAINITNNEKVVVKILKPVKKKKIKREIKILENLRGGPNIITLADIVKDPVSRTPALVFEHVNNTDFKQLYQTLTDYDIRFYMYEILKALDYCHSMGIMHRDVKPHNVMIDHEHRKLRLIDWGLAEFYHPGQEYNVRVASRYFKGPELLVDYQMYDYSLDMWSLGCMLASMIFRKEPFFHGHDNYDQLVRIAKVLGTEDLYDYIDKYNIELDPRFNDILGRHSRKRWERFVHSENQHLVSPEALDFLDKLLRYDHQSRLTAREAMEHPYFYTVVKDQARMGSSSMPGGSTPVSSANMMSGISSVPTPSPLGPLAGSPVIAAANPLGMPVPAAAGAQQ
Experimental: In vitro enzymatic profiling of the 32 member kinase panel was performed at Reaction Biology Corporation (http://www.reactionbiology.com, Malvern, PA) using the "HotSpot" assay platform. […]

CHEK2 = target: T11, CHEK2 (Homo sapiens, UniProt O96017); settings: inhibitor 10 μM, ATP 10 μM
T11 construct: purchased Reaction Biology Corporation
Experimental: as §1

LIMK1 = target: T12, LIMK1 (Homo sapiens, UniProt P53667); settings: inhibitor 10 μM, ATP 10 μM
T12 construct: purchased Reaction Biology Corporation
Experimental: as §1

CAMK2G = target: T13, CAMK2G (Homo sapiens, UniProt Q13555); settings: inhibitor 10 μM, ATP 10 μM, duplicate, read-out: IC50 (bioactivity in the kinome picture)
T13 construct: purchased Reaction Biology Corporation
Experimental: In vitro enzymatic profiling of the 32 member kinase panel was performed at Reaction Biology Corporation (http://www.reactionbiology.com, Malvern, PA) using the "HotSpot" assay platform. Each kinase activity assay was performed in duplicate with inhibitor concentration of 10 μM and an ATP concentration of 10 μM. […] Another compound JMY84 could also be used as drug candidates of colorectal cancer due to its effects on CHEK2, LIMK1, and FGFR1 (Figures 5D and 5E).

Structure (SMILES): O=c1cc(-c2ccccc2)oc2cc(O)c(O)c(O)c12 [JMY51]
pIC50 (FGFR1): ~5.52 | pIC50 (IGF1R): ~6.00 | pIC50 (INSR): ~5.70

inhibitory effect (in words) (AKT2): inhibitory effects | inhibitory effect (in words) (EGFR): inhibitory effects | inhibitory effect (in words) (IGF1R): inhibitory effects | pIC50 (IGF1R): ~7.00 | inhibitory activity (in words) (KIT): inhibitory activities | inhibitory activity (in words) (LCK): inhibitory activities | inhibitory effect (in words) (MAPK3): inhibitory effects | inhibitory activity (in words) (SRC): inhibitory activities | pIC50 (SRC; duplicate, read-out: IC50 (bioactivity in the kinome picture)): ~6.30
Structure (SMILES): O=C(Oc1cc(O)c2c(c1)OC(c1ccc(O)c(O)c1)C(O)C2)c1cc(O)c(O)c(O)c1 (stereo not drawn) [JMY65]

pIC50 (CSNK2A1): ~6.00 | effect on kinase (in words) (CHEK2): effects | effect on kinase (in words) (FGFR1): effects | effect on kinase (in words) (LIMK1): effects
Structure (SMILES): O=c1c(O)c(-c2ccc(OC3OC(CO)C(O)[C@@H](O)C3O)c(O)c2)oc2cc(O)cc(O)c12 (stereo partly drawn) [JMY84]

pIC50 (FGFR1): ~6.00 | pIC50 (CAMK2G): ~6.00
Structure (SMILES): O=c1c(O)c(-c2ccc(O)c(O)c2)oc2cc(O)cc(O)c12 [Quercetin, quercetin, reference compound]
